Here are results for two molecules from ChEMBL document CHEMBL1201862, “PubChem BioAssay data set” (2004).

The source made the active and inactive calls. Rule as the data show it, for most assays here: actives have a measured EC50 and inactives only a lower limit.

Assay [1] in a line: luciferase reporter signal reduction – luminescence, H4-C neuroglioblastoma cells, dose response (AID 2458).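 Also: H4 neuroglioblastoma cells stably carrying a luciferase reporter gene fusion.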 Type of assay: functional, cell-based. In general terms: In a reporter assay the amount or activity of a reporter protein is the signal.
A short description of assay [2]: microbe, parasite or virus in culture. The class given is functional. The conditions noted are these: Mycobacterium tuberculosis.
A short description of assay [3]: inhibitors of SNCA 5'UTR-driven reporter translation, confirmation, H4 neuroglioma cells, luminescence (AID 1988). Type of assay: functional, cell-based.
A short description of assay [4]: inhibitors of firefly luciferase expression or activity, dose response, H4 neuroglioma cells, luminescence (AID 1990). Type of assay: functional, cell-based.
The nature of another assay: cells. The class given is functional, cell-based.
A short description of assay [5]: Luminescence Cell-Based Dose Response HTS to Identify Inhibitors of 5'UTR Stem-Loop Driven Prion Protein mRNA Translation in H4 Neuroglioblastoma Cells. [Related pubchem assays: 1827 (Project Summary), 1813 (Primary HTS)]. The class given is functional.
Assay [6] can be described thus: inhibitors of SNCA 5'UTR-driven translation, confirmation, luminescence, H4 neuroglioblastoma cells, dose confirmation (AID 2454).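 Also: H4 neuroglioblastoma cells carrying an alpha-synuclein 5'UTR luciferase reporter; potency for inhibition of the luciferase signal.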 Type of assay: functional, cell-based.
The nature of assay [7]: HeLa cell cytotoxicity, dose response, cytotoxicity control for MgcRacGAP inhibitor project (AID 624300). Type of assay: functional.
The target in assay [8] is T1, Rac GTPase-activating protein 1 (Homo sapiens, UniProt Q9H0H5).
T1 sequence (Q9H0H5 whole entry): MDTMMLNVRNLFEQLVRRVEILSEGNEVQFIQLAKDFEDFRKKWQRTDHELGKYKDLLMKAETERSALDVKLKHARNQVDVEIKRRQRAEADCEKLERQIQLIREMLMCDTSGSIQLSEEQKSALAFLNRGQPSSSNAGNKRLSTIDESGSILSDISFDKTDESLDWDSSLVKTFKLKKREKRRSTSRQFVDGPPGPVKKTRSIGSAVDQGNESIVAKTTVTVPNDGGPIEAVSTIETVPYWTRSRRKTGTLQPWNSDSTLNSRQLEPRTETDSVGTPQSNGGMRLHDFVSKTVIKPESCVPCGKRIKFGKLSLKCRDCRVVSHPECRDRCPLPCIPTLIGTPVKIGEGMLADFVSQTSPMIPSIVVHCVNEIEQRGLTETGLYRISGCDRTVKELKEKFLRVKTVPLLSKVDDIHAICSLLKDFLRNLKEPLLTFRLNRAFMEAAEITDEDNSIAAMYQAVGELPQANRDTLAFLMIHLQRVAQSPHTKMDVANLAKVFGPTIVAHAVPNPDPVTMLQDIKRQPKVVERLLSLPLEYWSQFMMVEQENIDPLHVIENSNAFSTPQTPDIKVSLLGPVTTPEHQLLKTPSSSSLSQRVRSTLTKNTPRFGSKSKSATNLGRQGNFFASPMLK
Briefly: MgcRacGAP GTPase-activating activity inhibitors, confirmation, biochemical, ADP Hunter fluorescence, primary and confirmatory (AID 624330). The class given is functional.

A short description of assay [9]: Counterscreen for IDE inhibitors: Luminescence-based cell-based high throughput dose response assay to identify compounds that are cytotoxic to HEK cells. [Related pubchem assays: 434962 (Primary screen (IDE inhibitors in singlicate)), 449730 (Counterscreen (Cytotoxicity in triplicate)), 435028 (Confirmation (IDE inhibitors in triplicate)) …. Type of assay: functional. The conditions noted are these: HEK293.

For a further assay, the target named is T2, Insulin-degrading enzyme (Homo sapiens, UniProt P14735).
T2 sequence (P14735 whole entry): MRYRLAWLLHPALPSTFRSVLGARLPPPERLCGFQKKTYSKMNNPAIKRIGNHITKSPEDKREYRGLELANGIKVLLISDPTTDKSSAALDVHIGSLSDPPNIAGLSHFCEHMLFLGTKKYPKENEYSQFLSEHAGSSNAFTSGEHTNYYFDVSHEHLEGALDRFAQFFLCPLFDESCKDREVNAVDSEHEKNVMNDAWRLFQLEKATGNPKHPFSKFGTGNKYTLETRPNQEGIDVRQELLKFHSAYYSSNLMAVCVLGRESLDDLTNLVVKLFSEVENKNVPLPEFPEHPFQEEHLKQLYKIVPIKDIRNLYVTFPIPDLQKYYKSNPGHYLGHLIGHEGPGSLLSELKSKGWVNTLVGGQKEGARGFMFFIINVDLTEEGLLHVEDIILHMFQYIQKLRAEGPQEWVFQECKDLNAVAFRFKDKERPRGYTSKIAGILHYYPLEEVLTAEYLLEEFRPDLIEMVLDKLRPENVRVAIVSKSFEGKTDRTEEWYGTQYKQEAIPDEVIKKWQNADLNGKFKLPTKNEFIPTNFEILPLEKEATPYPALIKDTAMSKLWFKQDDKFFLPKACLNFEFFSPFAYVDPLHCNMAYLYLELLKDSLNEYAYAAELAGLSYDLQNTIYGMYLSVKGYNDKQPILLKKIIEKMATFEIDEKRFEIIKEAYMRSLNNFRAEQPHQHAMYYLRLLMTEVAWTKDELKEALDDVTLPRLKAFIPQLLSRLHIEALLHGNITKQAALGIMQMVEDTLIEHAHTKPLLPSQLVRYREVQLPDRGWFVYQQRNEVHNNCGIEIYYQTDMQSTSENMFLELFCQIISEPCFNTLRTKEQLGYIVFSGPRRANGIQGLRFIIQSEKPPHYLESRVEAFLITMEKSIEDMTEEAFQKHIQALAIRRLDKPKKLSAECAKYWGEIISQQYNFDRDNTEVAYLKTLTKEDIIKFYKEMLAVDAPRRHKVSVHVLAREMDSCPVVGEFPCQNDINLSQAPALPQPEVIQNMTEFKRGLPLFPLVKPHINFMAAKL
In words: Dose Response: Fluorescence polarization-based cell-based high throughput dose response assay for inhibitors of insulin-degrading enzyme (IDE). [Related pubchem assays: 434962 (Primary screen (IDE inhibitors in singlicate)), 449730 (Counterscreen (Cytotoxicity in triplicate)), 435028 (Confirmation (IDE inhibitors in triplicate)), 434984 (Summary …. Type of assay: functional. On the technique in general: Fluorescence polarisation rises when a labelled molecule tumbles more slowly, as on binding a larger partner.

As for `Cc1ccc(C(=O)Nc2cccc(C(F)(F)F)c2)cc1Nc1[nH]cnc2ncnc1-2`, the EC50 in assay [1] was 1.22 µM (active); in assay [3] it was < 0.1 µM (active); in assay [4] it was < 0.1 µM (active); in “cells” it was 4.59 µM (active); in [5], 11.8 µM (active); in assay [6] it was > 12 µM (not active). Besides, the CC50 in [2] is 34.8 µM (active).
For `COc1ccc(NC2=NC(=O)/C(=C/c3ccc(O)c(OC)c3)S2)cc1`, in assay [7], the CC50 was 95.4 µM (active). Moreover, the IC50 in [8] is 17.9 µM (active); in assay [9], 38.1 µM (not active); on Insulin-degrading enzyme it was > 6.22 µM (active).

In general, EC50 refers to the concentration needed to bring the measured effect to its halfway point. The IC50 is the concentration needed to halve the response being measured.
